System: recombinant human cytomegalovirus (HCMV)
Experiment: microbe, parasite or virus in culture
Assay type: cell-based
Details: CMV assay, Table 2; read-out: Antiviral Activity
Text: Certain preferred compounds and compositions are capable of specifically inhibiting or suppressing cytomegalovirus infection. For the assessment of activity against human CMV, a method was used which is similar to that described in Kohler, et al., J. Virol. 68:6589-6597 (1994). Briefly, a recombinant human cytomegalovirus (HCMV) was made containing a marker gene (luciferase) under the control of the promoter for the late 28 kDa viral structural phosphoprotein pp28. Human foreskin fibroblast (HFF) cells were infected with the recombinant HCMV virus (MOI 5), placed into 96-well plates, and cultured under standard cell-culture conditions. Compounds that were evaluated for anti-HCMV activity were added to the infected cells 1 hour later. The level of luciferase expression was measured 24 hours after treatment with the test compounds. […] As an additional control, the cytotoxicity of test compounds on untreated HFF cells was also evaluated in cultured cell growth experiments.

Row | Structure (SMILES) | IC50
1 | COc1cccc(CNc2nc(C)c([N+](=O)[O-])c(-n3ccnc3C)n2)c1 | 100 to 500 nM
2 | COc1ccc(CNc2nc(C)c([N+](=O)[O-])c(-n3ccnc3C)n2)cc1OC | 100 to 500 nM
3 | Cc1nc(NCc2ccc(F)cc2C(F)(F)F)nc(-n2ccnc2C)c1[N+](=O)[O-] | 100 to 500 nM
4 | Cc1nc(NCc2cc(F)cc(F)c2F)nc(-n2ccnc2C)c1[N+](=O)[O-] | 100 to 500 nM
5 | Cc1nc(NCc2cc(F)cc(F)c2)nc(-n2ccnc2)c1[N+](=O)[O-] | > 500 nM
6 | Cc1nc(NCc2cc(Cl)cc(Cl)c2)nc(-n2ccnc2C)c1[N+](=O)[O-] | 100 to 500 nM
7 | Cc1ccccc1CNc1nc(C)c([N+](=O)[O-])c(-n2ccnc2)n1 | > 500 nM
8 | Cc1nc(NCc2c(F)ccc(F)c2F)nc(-n2ccnc2C)c1[N+](=O)[O-] | 100 to 500 nM
9 | Cc1nc(NCc2cccc(Br)c2)nc(-n2ccnc2C)c1[N+](=O)[O-] | < 100 nM
10 | Cc1nc(NCc2cccc(F)c2)nc(-n2ccnc2C)c1[N+](=O)[O-] | 100 to 500 nM
11 | Cc1ccc(CNc2nc(C)c([N+](=O)[O-])c(-n3ccnc3C)n2)cc1 | > 500 nM
12 | Cc1nc(NCc2ccc(Cl)c(Cl)c2)nc(-n2ccnc2C)c1[N+](=O)[O-] | 100 to 500 nM
13 | CCc1nccn1-c1nc(NCc2c(F)cccc2Cl)nc(C)c1[N+](=O)[O-] | 100 to 500 nM
14 | Cc1nc(NCc2ccccc2OC(F)(F)F)nc(-n2ccnc2C)c1[N+](=O)[O-] | 100 to 500 nM
15 | Cc1nc(NCc2ccc(F)c(F)c2F)nc(-n2ccnc2C)c1[N+](=O)[O-] | 100 to 500 nM
16 | Cc1ccccc1CNc1nc(C)c([N+](=O)[O-])c(-n2ccnc2C)n1 | 100 to 500 nM
17 | Cc1nc(NCc2cc(F)ccc2F)nc(-n2ccnc2C)c1[N+](=O)[O-] | 100 to 500 nM
18 | Cc1cccc(Cl)c1CNc1nc(C)c([N+](=O)[O-])c(-n2ccnc2C)n1 | 100 to 500 nM
19 | CCc1nccn1-c1nc(NCc2ccc(F)cc2Cl)nc(C)c1[N+](=O)[O-] | 100 to 500 nM
20 | Cc1nc(NCc2ccc(F)cc2)nc(-n2ccnc2C)c1[N+](=O)[O-] | 100 to 500 nM

Row | Structure (SMILES) | IC50
21 | Cc1nc(NCc2ccc(F)c(C(F)(F)F)c2)nc(-n2ccnc2C)c1[N+](=O)[O-] | < 100 nM
22 | Cc1nc(NCc2ccc(F)c(F)c2)nc(-n2ccnc2C)c1[N+](=O)[O-] | 100 to 500 nM
23 | Cc1nc(NCc2cc(F)cc(F)c2)nc(-n2ccnc2C)c1[N+](=O)[O-] | < 100 nM
24 | Cc1nc(NCc2cccnc2)nc(-n2ccnc2C)c1[N+](=O)[O-] | > 500 nM
25 | Cc1nc(NCc2cccc(Cl)c2)nc(-n2ccnc2C)c1[N+](=O)[O-] | < 100 nM
26 | Cc1nc(NCc2cc(Cl)ccc2Cl)nc(-n2ccnc2C)c1[N+](=O)[O-] | < 100 nM
27 | Cc1nc(NCc2ccccn2)nc(-n2ccnc2C)c1[N+](=O)[O-] | 100 to 500 nM
28 | Cc1nc(NCc2cccc(C(F)(F)F)c2)nc(-n2ccnc2C)c1[N+](=O)[O-] | < 100 nM
29 | Cc1nc(NCc2c(F)cccc2Cl)nc(-n2ccnc2C)c1[N+](=O)[O-] | 100 to 500 nM
30 | CCc1nccn1-c1nc(NCc2ccc(F)cc2C(F)(F)F)nc(C)c1[N+](=O)[O-] | 100 to 500 nM
31 | Cc1nc(NCc2ccc(Cl)cc2)nc(-n2ccnc2C)c1[N+](=O)[O-] | 100 to 500 nM
32 | Cc1nc(NCc2cccc(Cl)c2Cl)nc(-n2ccnc2C)c1[N+](=O)[O-] | 100 to 500 nM
33 | Cc1cccc(CNc2nc(C)c([N+](=O)[O-])c(-n3ccnc3C)n2)c1 | 100 to 500 nM
34 | CCC(Nc1nc(C)c([N+](=O)[O-])c(-n2ccnc2C)n1)c1ccccc1 (centres unmarked) | 100 to 500 nM
35 | Cc1nc(NCc2ccccc2Cl)nc(-n2ccnc2C)c1[N+](=O)[O-] | < 100 nM
36 | Cc1nc(NCc2ccc(F)cc2Cl)nc(-n2ccnc2C)c1[N+](=O)[O-] | 100 to 500 nM
37 | Cc1nc(NCc2cc(C(F)(F)F)ccc2F)nc(-n2ccnc2C)c1[N+](=O)[O-] | < 100 nM
38 | Cc1nc(NCc2cc(C(F)(F)F)cc(C(F)(F)F)c2)nc(-n2ccnc2C)c1[N+](=O)[O-] | > 500 nM
39 | Cc1nc(NCc2cc(F)c(F)c(F)c2)nc(-n2ccnc2C)c1[N+](=O)[O-] | 100 to 500 nM

Same assay, conditions: CMV assay, Table 3; read-out: Antiviral Activity

Row | Structure (SMILES) | IC50
40 | Cc1nc(OCCc2ccccc2)nc(-n2ccnc2)c1[N+](=O)[O-] [phenethyl/H/Me] | > 500 nM
41 | CCOc1nc(C)c([N+](=O)[O-])c(-n2ccnc2C)n1 [ethyl/Me/Me] | > 500 nM
42 | COc1nc(C)c([N+](=O)[O-])c(-n2ccnc2C)n1 [methyl/Me/Me] | > 500 nM
43 | Cc1nc(OCCC(C)(C)C)nc(-n2ccnc2C)c1[N+](=O)[O-] [3,3-dimethyl-1-butyl/Me/Me] | > 500 nM
44 | Cc1nc(OCc2ccccc2)nc(-n2ccnc2)c1[N+](=O)[O-] [benzyl/H/Me] | > 500 nM
45 | CCCCOc1nc(C)c([N+](=O)[O-])c(-n2ccnc2)n1 [n-butyl/H/Me] | > 500 nM
46 | CCCCOc1nc(C)c([N+](=O)[O-])c(-n2ccnc2C)n1 [n-butyl/Me/Me] | > 500 nM
47 | COC(C)CCOc1nc(C)c([N+](=O)[O-])c(-n2ccnc2)n1 (centres unmarked) [3-methoxy-1-butyl/H/Me] | > 500 nM
48 | COC(C)CCOc1nc(C)c([N+](=O)[O-])c(-n2ccnc2C)n1 (centres unmarked) [3-methoxy-1-butyl/Me/Me] | > 500 nM
49 | Cc1nc(OCCC(C)(C)C)nc(-n2ccnc2)c1[N+](=O)[O-] [3,3-dimethyl-1-butyl/H/Me] | > 500 nM
50 | CCCOc1nc(C)c([N+](=O)[O-])c(-n2ccnc2)n1 [n-propyl/H/Me] | > 500 nM

Same assay, conditions: CMV assay, Table 4; read-out: Antiviral Activity

Row | Structure (SMILES) | IC50
51 | Cc1nc(NC2CCc3c(F)ccc(F)c32)nc(-n2ccnc2)c1[N+](=O)[O-] (centres unmarked) | 100 to 500 nM
52 | CCc1nccn1-c1nc(NC2CCc3c(F)ccc(F)c32)nc(C)c1[N+](=O)[O-] (centres unmarked) | < 100 nM
53 | Cc1nc(NC2CCc3c(Cl)cccc32)nc(-n2ccnc2C)c1[N+](=O)[O-] (centres unmarked) | > 500 nM
54 | Cc1nc(NC2COc3ccccc32)nc(-n2ccnc2C)c1[N+](=O)[O-] (centres unmarked) | 100 to 500 nM
55 | Cc1nc(NC2CCc3cc(F)c(F)cc32)nc(-n2ccnc2)c1[N+](=O)[O-] (centres unmarked) | 100 to 500 nM
56 | Cc1nc(NC2CCc3c(F)ccc(F)c32)nc(-n2ccnc2C)c1[N+](=O)[O-] (centres unmarked) | < 100 nM
57 | Cc1nc(NC2CCc3c(F)cccc32)nc(-n2ccnc2)c1[N+](=O)[O-] (centres unmarked) | 100 to 500 nM
58 | Cc1nc(NC2CCc3cc(F)c(F)cc32)nc(-n2ccnc2C)c1[N+](=O)[O-] (centres unmarked) | 100 to 500 nM
59 | Cc1nc(NC2CCc3cc(F)ccc32)nc(-n2ccnc2)c1[N+](=O)[O-] (centres unmarked) | < 100 nM
60 | Cc1nc(NC2CCc3ccccc32)nc(-n2ccnc2C)c1[N+](=O)[O-] (centres unmarked) | < 100 nM
61 | Cc1nc(NC2CCc3cc(F)ccc32)nc(-n2ccnc2C)c1[N+](=O)[O-] (centres unmarked) | 100 to 500 nM
62 | COC1c2ccccc2CC1Nc1nc(C)c([N+](=O)[O-])c(-n2ccnc2)n1 (centres unmarked) | > 500 nM
63 | Cc1nc(NC2CCCc3ccccc32)nc(-n2ccnc2C)c1[N+](=O)[O-] (centres unmarked) | 100 to 500 nM
64 | COC1c2ccccc2CC1Nc1nc(C)c([N+](=O)[O-])c(-n2ccnc2C)n1 (centres unmarked) | > 500 nM
65 | Cc1nc(NC2CCc3ccccc32)nc(-n2ccnc2)c1[N+](=O)[O-] (centres unmarked) | < 100 nM
66 | CCc1nccn1-c1nc(NC2CCc3ccccc32)nc(C)c1[N+](=O)[O-] (centres unmarked) | 100 to 500 nM
67 | Cc1nc(NC2Cc3ccccc3C2(C)C)nc(-n2ccnc2C)c1[N+](=O)[O-] (centres unmarked) | 100 to 500 nM
68 | Cc1nc(N(C)C2CCc3ccccc32)nc(-n2ccnc2C)c1[N+](=O)[O-] (centres unmarked) | 100 to 500 nM
69 | Cc1nc(NC2Cc3ccccc3C2(C)C)nc(-n2ccnc2)c1[N+](=O)[O-] (centres unmarked) | > 500 nM
70 | CCc1nccn1-c1nc(NC2Cc3ccccc3C2)nc(C)c1[N+](=O)[O-] | > 500 nM
71 | Cc1nc(NC2CCc3c(F)cccc32)nc(-n2ccnc2C)c1[N+](=O)[O-] (centres unmarked) | 100 to 500 nM
72 | Cc1nc(NC2CCc3ccc(Cl)cc32)nc(-n2ccnc2C)c1[N+](=O)[O-] (centres unmarked) | 100 to 500 nM
73 | Cc1nc(NC2CCc3cc(Br)ccc32)nc(-n2ccnc2C)c1[N+](=O)[O-] (centres unmarked) | 100 to 500 nM
74 | CCc1nccn1-c1nc(NC2CCc3c(F)cccc32)nc(C)c1[N+](=O)[O-] (centres unmarked) | 100 to 500 nM
75 | CCc1nccn1-c1nc(NC2CCc3cc(F)c(F)cc32)nc(C)c1[N+](=O)[O-] (centres unmarked) | 100 to 500 nM

Same assay, conditions: Human betaherpesvirus 5, HFF, 24 h

Row | Structure (SMILES) | IC50
76 | Cc1nc(N2CCN(Cc3ccccc3)CC2)nc(-n2ccnc2C)c1[N+](=O)[O-] [u, 2-(4-benzylpiperazin-1-yl)-4-(2-methylimidazol-1-yl)-6-methyl-5-nitropyrimidine] | 100 nM

System: not given
Experiment: not given
Details: not given

Row | melting point | Structure (SMILES)
77 | 164 to 165 °C | Cc1nc(NC2CCc3c(F)cc(F)cc32)nc(-n2ccnc2C)c1[N+](=O)[O-] (centres unmarked) [2-(4,6-difluoro-1-indanamino)-4-(2-methylimidazol-1-yl)-6-methyl-5-nitropyrimidine]
78 | 88 to 89 °C | CCc1nccn1-c1nc(NC2CCc3c(F)cc(F)cc32)nc(C)c1[N+](=O)[O-] (centres unmarked) [2-(4,6-difluoro-1-indanamino)-4-(2-ethylimidazol-1-yl)-6-methyl-5-nitropyrimidine]
79 | 177 to 178 °C | Cc1nc(NC2Cc3ccccc3C2)nc(-n2ccnc2)c1[N+](=O)[O-] [2-(2-indanamino)-4-imidazol-1-yl-6-methyl-5-nitropyriridine]
80 | 175 to 176 °C | Cc1nc(NC2CCc3c(F)cc(F)cc32)nc(-n2ccnc2)c1[N+](=O)[O-] (centres unmarked) [2-(4,6-difluoro-1-indanamino)-4-(imidazol-1-yl)-6-methyl-5-nitropyrimidine]
81 | 123 to 124 °C | CC[C@H]1CCCC[C@H]1Nc1nc(C)c([N+](=O)[O-])c(-n2ccnc2)n1 (relative stereo)
82 | 184 to 185 °C | Cc1nc(NC2Cc3ccccc3C2)nc(-n2ccnc2C)c1[N+](=O)[O-].Cl
83 | 203 to 204 °C | Cc1nc(NC2Cc3ccccc3C2)nc(-n2ccnc2C)c1[N+](=O)[O-] [2-(2-indanamino)-4-(2-methylimidazol-1-yl)-6-methyl-5-nitropyrimidine]
